According to article PMC10607100, “Anticancer and Antiphytopathogenic Activity of Fluorinated Isatins and Their Water-Soluble Hydrazone Derivatives” (International Journal of Molecular Sciences, 2023):

Tests used:
M-HeLa = test: MTT cell viability test, M-HeLa; assay type: cell-based, human; details: Homo sapiens, M-HeLa; incubation time 24 h
Experimental: (§1) Human cell cultures of tumor origin—HeLa (cervical tumor), HuTu 80 (human duodenal adenocarcinoma), ChangLiver (human liver HeLa-like line), and normal cell line WI38, VA 13 subline 2RA is a diploid human cell strain composed of fibroblasts derived from healthy lung tissue provided by The Gamaleya National Center for Epidemiology and Microbiology, as well as the Institute of Cytology of the Russian Academy of Sciences. They were grown in a nutrient medium DMEM (PanEco, Moscow, Russia) and MEM (PanEco, Moscow, Russia), containing fetal bovine serum (10% by volume) (ThermoFisher Scientific, Paisley, UK), Glutamax (2 mM) (Gibco, Scotland, UK), and penicillin-streptomycin (1% by volume) (PanEco, Moscow, Russia). The cultivation was carried out at 37 °C in a humidified CO2 atmosphere (5%).
(§2) Cell viability was determined by the MTT test. Cells were seeded in a 96-well plate in the amount of 1 × 10^4 cells/200 µL of complete nutrient medium and cultured at 37 °C in CO2 (5%). After 24 h of incubation, various concentrations of test compounds in the range of 0.1 to 100 μM were added to the cell cultures, and then the cells were cultured under the same conditions for 24 and 72 h. For each concentration, the experiment was carried out in triplicate.
(§3) All compounds were dissolved in DMSO and then diluted with the medium to the required concentration. […] The DMSO was also added to the control wells in a volume of 1%. After the incubation time, MTT (3-(4,5-dimethylthiazol-2-yl)-2,5-diphenyltetrazolium bromide, 5 mg/mL) was added to each well, and plates were additionally incubated for 2 h (until the characteristic color appeared).
(§4) Using a plate analyzer (Cytation3, BioTech Instruments Inc., Winooski, VT, USA), the optical density was determined at 530 nm.
(§5) The IC50 parameter was calculated using the AAT Bioquest program.
(§6) The selectivity index (SI) is calculated as the ratio between the IC50 for normal cells and the IC50 for cancer cells.

HuTu 80 = test: MTT cell viability test, HuTu 80; assay type: cell-based, human; details: Homo sapiens, HuTu80; incubation time 24 h
Experimental: as §1, §2, §3, §4, §5, §6

Chang Liver = test: MTT cell viability test, Chang liver; assay type: cell-based; details: Homo sapiens, incubation time 24 h
Experimental: as §1, §2, §3, §4, §5

[1] = tested on: Pectobacterium atrosepticum 1043; test: Agar-well diffusion, bactericidal activity; assay type: cell-based
Text: (§7) Plant pathogenic bacterial strains Micrococcus luteus B-109, Pectobacterium atrosepticum 1043, Pectobacterium carotovorum subsp. carotovorum MI, Pseudomonas fluorescens EL-2.1, and Xanthomonas campestris B-610 and the fungal strain Fusarium oxysporum IBPPM 543 were from the Collection of Rhizosphere Microorganisms, IBPPM RAS (WFCC no. 975, WDCM no. 1021) (CM IBPPM, http://collection.ibppm.ru). The pathogenic fungus Phytophthora cactorum VKM F-985, provided by the All-Russian Collection of Microorganisms (VKM) and deposited at the A.E. Favorsky Irkutsk Institute of Chemistry, SB RAS, was also used as a test organism. Bacteria M. luteus, P. carotovorum subsp. carotovorum, P. atrosepticum, and P. fluorescens were grown in a meat–peptone medium (BP), and X. campestris was grown in the medium with glucose, yeast extract, and calcium carbonate (GYCa). Solid media contained Bacto agar (18 g/L); pH was adjusted to 7.2–7.4. All bacterial cultures were grown at 28 °C. The mycelial cultures of F. oxysporum and P. cactorum were grown on a glucose–peptone–yeast (GPY) nutrient medium at 27 °C. For inoculum preparation, both fungal strains were initially grown on the agar GPY in Petri dishes and then transferred into the seed medium by punching out 5 mm of the agar plate culture with a self-designed cutter.
(§8) The antibacterial and antifungal activities of the compounds were explored using the agar-well diffusion method and the technique of mycelial radial growth inhibition. The method of diffusion in agar (measuring the diameter of growth inhibition zones) was used to determine the bactericidal activity. The 6-mm wells were made in agar medium (GYCa for Xanthomonas campestris or BP for other bacteria). Bacterial suspensions were distributed over the agar surface, and the tested compound’s solution (150 μL) was added to each well. The width of growth inhibition zones around the wells was determined after incubation for 36–40 h.

Micrococcus luteus B-109 = test: Agar-well diffusion, bactericidal activity; assay type: cell-based
Text: as §7, §8

[2] = tested on: Pectobacterium carotovorum subsp. carotovorum MI; test: Agar-well diffusion, bactericidal activity; assay type: cell-based
Text: as §7, §8

[3] = tested on: Pseudomonas fluorescens EL-2.1; test: Agar-well diffusion, bactericidal activity; assay type: cell-based
Text: as §7, §8

[4] = tested on: Xanthomonas campestris B-610; test: Agar-well diffusion, bactericidal activity; assay type: cell-based
Experimental: Bacteria M. luteus, P. carotovorum subsp. carotovorum, P. atrosepticum, and P. fluorescens were grown in a meat–peptone medium (BP), and X. campestris was grown in the medium with glucose, yeast extract, and calcium carbonate (GYCa). Solid media contained Bacto agar (18 g/L); pH was adjusted to 7.2–7.4. […] For inoculum preparation, both fungal strains were initially grown on the agar GPY in Petri dishes and then transferred into the seed medium by punching out 5 mm of the agar plate culture with a self-designed cutter.
as §8

Row | melting point [°C] | IC50 (M-HeLa) [µM] | Structure (SMILES) | IC50 (HuTu 80) [µM] | IC50 (Chang Liver) [µM] | other results
1 | 97 to 98 | 58.8 ± 4.4 | Cc1cc(C)cc(CN2C(=O)C(=O)c3cc(F)ccc32)c1 [Compound 4b, 1-(3,5-Dimethylbenzyl)-5-fluoroindoline-2,3-dione] | 50 ± 3.8 | 63.2 ± 5.5 | –
2 | 136 to 137 | 58.4 ± 4.1 | CC(C)(C)c1cc(CN2C(=O)C(=O)c3cc(F)ccc32)cc(C(C)(C)C)c1 [Compound 4d, 1-(3,5-Di-tert-butylbenzyl)-5-fluoroindoline-2,3-dione] | 33.3 ± 2.3 | 39.4 ± 2.8 | –
3 | 131 to 132 | 65.7 ± 5.9 | O=C1C(=O)N(Cc2c(F)cccc2F)c2ccc(F)cc21 [Compound 3c, 1-(2,6-Difluorobenzyl)-5-fluoroindoline-2,3-dione] | 41.2 ± 2.7 | 95.5 ± 8 | –
4 | 112 to 113 | 100 ± 7.4 | O=C1C(=O)N(Cc2c(F)c(F)c(F)c(F)c2F)c2ccc(F)cc21 [Compound 3f, 5-Fluoro-1-((perfluorophenyl)methyl)indoline-2,3-dione] | 92 ± 6.4 | > 100 | –
5 | – | > 100 | O=C1C(=O)N(Cc2c(F)c(F)c(F)c(F)c2F)c2ccccc21 [Compound 8d] | 54.1 ± 3.9 | > 100 | –
6 | – | – | [Na+].[O-]Cl [sodium hypochlorite, reference compound] | – | – | width of the inhibition zone (mm), P. atrosepticum ([1]; 1000 μg/mL): 4 mm; width of the inhibition zone (mm), M. luteus (Micrococcus luteus B-109; 1000 μg/mL): 2.5 mm; width of the inhibition zone (mm), P. carotovorum subsp. carotovorum ([2]; 1000 μg/mL): 3 mm; width of the inhibition zone (mm), Ps. fluorescens ([3]; 1000 μg/mL): 4 mm; width of the inhibition zone (mm), X. campestris ([4]; 1000 μg/mL): 4 mm
7 | – | 50 ± 3.7 | O=C1C(=O)N(Cc2ccc(F)cc2Cl)c2ccccc21 [Compound 8a] | 64 ± 4.5 | > 100 | –
8 | – | – | N=C(NCCCCCCNC(=N)NC(=N)Nc1ccc(Cl)cc1)NC(=N)Nc1ccc(Cl)cc1 [Chlorohexidin, chlorohexidin, reference compound] | – | – | width of the inhibition zone (mm), P. atrosepticum ([1]; 500 μg/mL): 4 mm; width of the inhibition zone (mm), M. luteus (Micrococcus luteus B-109; 500 μg/mL): 5 mm; width of the inhibition zone (mm), P. carotovorum subsp. carotovorum ([2]; 500 μg/mL): 5 mm; width of the inhibition zone (mm), Ps. fluorescens ([3]; 500 μg/mL): 4 mm; width of the inhibition zone (mm), X. campestris ([4]; 500 μg/mL): 5 mm
